What was measured:
human glial U-343 cells = test: IL-6 ELISA, basal secretion of IL-6; type: cell-based; details: inhibitor 20 μM, 24 hours, serum-free medium, untreated control = 100%, read-out: Extracellular IL-6 concentration, % of untreated cells
Method: To analyze basal secretion of IL-6, human glial U-343 cells were cultured in 6 well plates (1.5×10^6 cells/well, Greiner) and treated with specific PEP inhibitors as indicated (20 μM each) for 24 hours in serum-free D-MEM medium (invitrogen). Aliquots of 40 μl conditioned medium were used to quantify the amount of secreted IL-6 by an human-specific IL-6 ELISA (Biosource) following the manufacturer's instructions. All data were obtained in quadruplicate. For the calculation of the IL-6 concentration in the cell culture medium after PEP-inhibitor treatment, the basal IL-6 concentration of the cell culture medium of untreated cell samples was set to 100%. The results of the measurement of the IL-6 concentration with PEP-inhibitor treated cells are presented as % of the untreated cell samples.

U-343 and SH-SY5Y cells = test: β-Amyloid ELISA, secreted β-amyloid peptides 1-40 and 1-42; type: cell-based; details: Homo sapiens, inhibitor 20 μM, 24 hours, conditioned medium, untreated cells = 100%, cell line and peptide (1-40/1-42) not given, read-out: Extracellular Aβ-concentration, % of control
Method: The human glioma cell line, U-343 and the human neuroblastoma cell line, SH-SY5Y were maintained in Dulbecco's modified Eagle's medium (DMEM) containing 10% fetal bovine serum (Gibco BRL, Karlsruhe, Germany) and incubated at 37° C. in a 5% CO2 atmosphere. Culture media contained in general 60 μg/ml gentamycin (Gibco BRL, Karlsruhe, Germany).
To quantify intracellular and extracellular concentrations of 0-amyloid peptides, 1-40 and 1-42, U-343 and SH-SY5Y cells were cultured in 6 well plates (1.5×10^6 cells/well) and treated with specific PEP inhibitors (20 μM each) for 24 hours. For quantitation of secreted β-amyloid peptides the conditioned medium was collected and concentrated by lyophylisation. Likewise, after determination of the cell numbers/well (casy cell counter I, Schärfe System, Reutlingen, Germany), cells were lyzed with cell extraction buffer (Biosource, Solingen, Germany) according to the manufacturer's protocol. The protein concentration was determined by the method of Bradford (1976). Aliquots of 100 μl were used to quantify β-amyloid peptides 1-40 and 1-42 in quadruplicate by ELISA (IBL, Hamburg, Germany) following the manufacturer's instructions. All obtained intracellular and extracellular concentrations were normalized to cell numbers and protein concentration, respectively.
For the calculation of the concentration of β-amyloid peptides 1-40 and 1-42 in the cell culture medium after PEP-inhibitor treatment, the basal concentration of β-amyloid peptides 1-40 and 1-42 in the cell culture medium of untreated cell samples was set to 100%. The results of the measurement of the concentration of β-amyloid peptides 1-40 and 1-42 with PEP-inhibitor treated cells are presented as % of the untreated cell samples.

Structure (SMILES)	activity at 20 µM (human glial U-343 cells)	activity at 20 µM (U-343 and SH-SY5Y cells)
O=C(OCCc1ccccc1)[C@@H]1CCCC[C@H]1C(=O)c1cccs1 (relative stereo) [Example 27, trans-1-(Thienylcarbonyl)-2-(phenyl-ethyl-oxycarbonyl)-cyclohexane]	19.6%	298%
O=C(OCc1ccccc1)c1ccccc1C(=O)c1cccs1 [Example 1]	92.6%	197%
O=C(OCCc1ccccc1)c1ccccc1C(=O)c1cccs1 [Example 2]	65.5%	214%
O=C(OCc1ccc([N+](=O)[O-])cc1)c1ccccc1C(=O)c1cccs1 [Example 3]	245%	141%
O=C(OCC1c2ccccc2-c2ccccc21)c1ccccc1C(=O)c1cccs1 [Example 4, 2-(Fluorenyl-methyl-oxycarbonyl)-phenylthenon]	40.7%	200%
O=C(OCCc1ccc([N+](=O)[O-])cc1)c1ccccc1C(=O)c1cccs1 [Example 5, 2-(4-Nitrophenyl-ethyl-oxycarbonyl)-phenylthenon]	102%	160%
Cc1cccc(CCOC(=O)c2ccccc2C(=O)c2cccs2)c1 [Example 6]	45.8%	215%
O=C(OC1Cc2ccccc2C1)c1ccccc1C(=O)c1cccs1 [Example 7, 2-([2,3-Dihydro-1H-indene-2-yl]-oxycarbonyl)-phenylthenon]	85.3%	205%
O=C(OCCc1ccc2ccccc2c1)c1ccccc1C(=O)c1cccs1 [Example 8]	93.7%	165%
O=C(OCCN1C(=O)c2ccccc2C1=O)c1ccccc1C(=O)c1cccs1 [Example 10, 2-(Isoindolinyl-1,3-dione-ethyl-oxycarbonyl)-phenylthenon]	143%	125%
O=C(OCCCc1ccccc1)c1ccccc1C(=O)c1cccs1 [Example 11]	42.4%	192%
O=C(OCCc1cccc(Cl)c1)c1ccccc1C(=O)c1cccs1 [Example 12]	53.7%	191%
O=C(OCc1ccco1)c1ccccc1C(=O)c1cccs1 [Example 13, 2-(Furyl-methyl-oxycarbonyl)-phenylthenon]	74.2%	122%
O=C(OCCc1ccccc1)[C@H]1CCCC[C@H]1C(=O)c1cccs1 [Example 28]	78.8%	
O=C(OCCc1ccccc1[N+](=O)[O-])c1ccccc1C(=O)c1cccs1 [Example 33]	54.5%	
O=C(OCCc1cccc([N+](=O)[O-])c1)c1ccccc1C(=O)c1cccs1 [Example 34]	78.8%	
COc1cccc(CCOC(=O)c2ccccc2C(=O)c2cccs2)c1 [Example 35]	46.7%	
O=C(OCc1cccc(C(F)(F)F)c1)c1ccccc1C(=O)c1cccs1 [Example 36]	79.8%	
O=C(OCCc1ccc(Cl)cc1)c1ccccc1C(=O)c1cccs1 [Example 37]	72.5%	
O=C(OCCc1cccc(F)c1)c1ccccc1C(=O)c1cccs1 [Example 38]	33%	
CCCCCCOC(=O)c1ccccc1C(=O)c1cccs1 [Example 39]	50.2%	
O=C(OCc1ccccc1Br)c1ccccc1C(=O)c1cccs1 [Example 40]	36%	
O=C(OCc1ccccc1F)c1ccccc1C(=O)c1cccs1 [Example 41]	46.4%	
O=C(OCc1ccc(F)cc1)c1ccccc1C(=O)c1cccs1 [Example 42]	32.4%	
O=C(OCCc1ccc(F)cc1)c1ccccc1C(=O)c1cccs1 [Example 43]	29.2%	
O=C(OCc1cccc(Cl)c1Cl)c1ccccc1C(=O)c1cccs1 [Example 44]	26.5%	
O=C(NC1CC1c1ccccc1)c1ccccc1C(=O)c1cccs1 (centres unmarked) [Example 45]	22%	
O=C(OCCc1cccc(O)c1)c1ccccc1C(=O)c1cccs1 [Example 46]	35.8%	

Source: US7592467B2, “Inhibitors of prolyl endopeptidase” (Probiodrug AG, priority 2005, dated 2009)
